Reference: PubChem BioAssay (NCI)
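Cultured in 96-well plates, cells were exposed to test compound for 48 hours across five concentrations. TGI denotes the concentration required for complete inhibition of growth.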

Tests used:
Assay in all cases: DTP human tumour cell line panel, 48 h
[1] = test system: OVCAR-8 ovarian
[2] = test system: DLD-1 colon
[3] = test system: HOP-18 NSCLC
[4] = test system: KM20L2 colon
[5] = test system: XF 498 CNS
[6] = test system: 786-0 renal
[7] = test system: SNB-78 CNS
[8] = test system: DMS 114 small cell lung
[9] = test system: MALME-3M melanoma
[10] = test system: CCRF-CEM leukemia
[11] = test system: LXFL 529 NSCLC
[12] = test system: M19-MEL melanoma
[13] = test system: DMS 273 small cell lung
[14] = test system: RXF-631 renal

With C[C@]12CCC(=O)C=C1CC[C@@H]1[C@@H]2CC[C@]2(C)C(=O)NC(=O)C[C@@H]12 the TGI [1] was greater than 100 µM, the TGI [2] was greater than 100 µM and the TGI [3] was greater than 100 µM. The TGI [4] was greater than 100 µM, the TGI [5] was greater than 100 µM and the TGI [6] was greater than 100 µM. It also gave a TGI [7] greater than 100 µM, a TGI [8] greater than 100 µM and a TGI [9] greater than 100 µM. The TGI [10] was greater than 100 µM, the TGI [11] was greater than 100 µM and the TGI [12] was greater than 100 µM. The TGI [13] was greater than 100 µM and the TGI [14] was greater than 100 µM.
Work on C=Cc1ccc(C)[n+](C[Si](C)(C)O[Si](C)(C)C)c1 yielded a TGI [1] greater than 100 µM, a TGI [2] greater than 100 µM and a TGI [4] greater than 100 µM. It also gave a TGI [6] greater than 100 µM, a TGI [7] greater than 100 µM and a TGI [8] greater than 100 µM. The TGI [9] was greater than 100 µM, the TGI [10] was greater than 100 µM and the TGI [11] was greater than 100 µM. For the same compound, the TGI [13] was greater than 100 µM and the TGI [14] was greater than 100 µM.
COC(=O)C(=O)C(C(=O)C(=O)Nc1ccc(F)cc1)c1nc2ccc([N+](=O)[O-])cc2[nH]c1=O (stereo unspecified) showed a TGI [1] greater than 100 µM, a TGI [2] greater than 100 µM and a TGI [3] greater than 100 µM. It also gave a TGI [4] greater than 100 µM, a TGI [5] greater than 100 µM and a TGI [6] greater than 100 µM. The TGI [7] was greater than 100 µM, the TGI [9] was greater than 100 µM and the TGI [10] was greater than 100 µM. It also gave a TGI [11] greater than 100 µM, a TGI [12] greater than 100 µM and a TGI [14] greater than 100 µM.
For NC1=C(NC(=O)Cc2ccc(F)cc2)C(=O)c2ccccc2C1=O, the TGI [1] was 98.5 µM, the TGI [2] was greater than 71.4 µM and the TGI [4] was greater than 100 µM. It also gave a TGI [5] greater than 100 µM, a TGI [6] greater than 100 µM and a TGI [7] of 65.1 µM. For the same compound, the TGI [8] was 27 µM, the TGI [9] was greater than 100 µM and the TGI [10] was greater than 100 µM. It also gave a TGI [11] greater than 100 µM, a TGI [12] of 45.4 µM and a TGI [13] greater than 100 µM. For the same compound, the TGI [14] was greater than 100 µM.
NC(=O)N/N=C(\CC1OC(=O)c2ccccc21)c1ccco1 (stereo unspecified) showed a TGI [2] greater than 100 µM, a TGI [3] greater than 100 µM and a TGI [4] greater than 100 µM. For the same compound, the TGI [6] was greater than 100 µM, the TGI [8] was greater than 100 µM and the TGI [9] was greater than 100 µM. It also gave a TGI [10] greater than 100 µM, a TGI [11] greater than 100 µM and a TGI [12] greater than 100 µM. For the same compound, the TGI [13] was greater than 100 µM and the TGI [14] was greater than 100 µM.
